Data from US4389412A, “Substituted cyclopropanecarboxylic acid esters and pesticidal compositions containing the same as active ingredient” (priority 1979, dated 1983).
Converted amounts (≈) assume the structure as drawn. Where two headings read alike, the source gives them in different places.

Key:
[1] = Fish toxicity safety factor (TLm divided by maximum concentration in cover water); design: species or system carp; conditions: in vivo, TLm / maximum concentration in cover water at LC50 application (100 l per 10 ares, 5 cm depth)
Experimental: To further confirm the low toxicity to fish and high pesticidal activity of Compounds (1) and (2) according to this invention as evidenced by the fish toxicity tests with carps and the above tests, fish toxicity safety factors were calculated from the fish toxicity and pesticidal test data. These fish toxicity safety factors are indicators of safety to fish inhabiting a paddy field to which Compounds (1) and (2) may be actually applied for pest control purposes.
It is first assumed that such a pesticidal solution would normally be applied at the rate of 100 l per 10 ares of paddy field. It is also assumed that a solution (100 l) corresponding to the LC50 of the compounds would be applied to 10 ares of a paddy field carrying a cover water with a depth of 5 cm above ground surface and that all the solution would then find its way into the cover water. The expected maximum concentration of the compound in the cover water is then calculated. The fish toxicity safety factor of a pesticidal compound is defined as the value obtained by dividing the TLm (ppm) of the particular compound by the maximum concentration of the compound in cover water. The meaning of the value of the fish toxicity safety factor being one (1) is that the maximum concentration of the particular compound in cover water corresponds to the TLm of said compound. It is understood that when the pesticidal compound having a fish toxicity safety factor value of less than one (1) is applied to a paddy field, it has a risk of destroying the fish inhabiting there, and that the higher the safety factor value, the higher is the safety of the compound to fish.
This fish toxicity safety factor will now be explained in further detailed by taking the trans-isomer of Compound (2) of this invention as an example.
On the other hand, the toxicity to fish of this compound is TLm >10 ppm. Therefore, by dividing the TLm (i.e. >10 ppm) by the above cover water maximum concentration (i.e. 0.36 ppm), we obtain a fish toxicity safety factor of >28. Thus, the concentration of the trans-isomerof Compound (2) which kills 50% of pests corresponds to less than 1/28 of the concentration of the same isomer which kills 50% of fish. In other words, this means that the trans-isomer of Compound (2) is extremely safe to fish.

[2] = system: brown planthoppers (Nilaparvata lugens Stal); test: Utility Example-1: LC50 on adult brown planthoppers on dipped rice plants; format: in vivo; conditions: Nilaparvata lugens, 24 h, 25° C., read-out: Pesticidal activity LC50
Experimental: A 1% emulsifiable concentrate of each test compound as prepared by the procedure described in Formulation Example 2 was diluted with water to prepare a test solution of predetermined concentration.
Rice plants, 4 weeks after sowing (cultivated in a pot 6 cm in diameter, 7 seedlings) were dipped in the above solution and after allowing them to dry in the air, the pot was covered with a wire-mesh cage. Then, 30 adult brown planthoppers (Nilaparvata lugens Stal) were released into the cage and the pot was kept in a constant-temperature chamber at 25° C.

[3] = Toxicity test with water-fleas; format: in vivo, Daphnia pulex; conditions: water, 25±1° C., read-out: TLm, Water-flea (6 hrs.)
Experimental: Toxicity test with water-fleas (Daphnia pulex)
An acetone solution of one of the test compounds as mentioned in Table 10 and Tween-20 (the same surfactant as mentioned hereinbefore) was prepared. To 100 ml of water in a high-walled dish (9 cm in diameter, 7 cm deep) was added the above acetone solution. The mixture was stirred thoroughly to prepare an aqueous solution containing the test compound in a predetermined concentration. This was used as a test water. Twenty water-fleas (Daphnia pulex) were released into each test water which was maintained at 25±1° C. After 6 hours, the water-fleas were examined for deaths. The TLm (median tolerance limit, ppm) was determined.

[4] = Fish toxicity test with carp; format: in vivo, Cyprinus carpio L; conditions: carp, water, 48 hrs., 21±1° C.; read-out: TLm, Carp (48 hrs.)
Experimental: Fish toxicity test with carp (Cyprinus carpio L)
An acetone solution of one of the test compounds as mentioned in Table 10 and Tween-20 (the same surfactant as mentioned hereinbefore) was prepared. To 50 liters of water (30 cm deep) in a glass tank was added the above acetone solution. The mixture was stirred thoroughly to prepare an aqueous solution containing the test compound in a predetermined concentration. This was used as a test water. Five carps (Cyprinus carpio L) with a body weight of about 6 g and a body length of about 6 cm were released into each test water which was maintained at 21±1° C. After 48 hours, the test fish was examined for death. The TLm (median tolerance limit, ppm) was determined. The test water was moderately aerated.

[5] = system: carp and water flea; test: Fish toxicity ranking according to Japanese regulations; design: species or system Cyprinus carpio L; Daphnia pulex; conditions: from TLm for carp and water flea
Experimental: The above ranking with symbols A, B and C were determined according to Japanese regulations relative to application of agricultural chemicals, and these symbols are defined as follows: […]
A: TLm (48 hrs.) value >10 ppm for carp and TLm (3 hrs.) value >0.5 ppm for water flea, wherein toxicity to fishes is not observed by usual application.
B: TLm (48 hrs.) value 10-0.5 ppm for carp; or TLm (48 hrs.) value >10 ppm for carp and TLm (3 hrs.) value <0.5 ppm for water flea, wherein appreciable toxicity to fishes is not observed by usual application but may be observed when applied to wide area at one time.
C: TLm (48 hrs.) value <0.5 ppm for carp, wherein toxicity to fishes is so strongly observed by usual application that both the application method and application area are strictly restricted.

[6] = system: houseflies (Musca domestica); test: Mortality test with houseflies by topical application method; conditions: 24 h; for mortality at 0.001 mg: read-out: Pesticidal effect, housefly
[7] = system: green rice leafhoppers (Nephotettix cincticeps Uhler); test: Mortality test with green rice leafhoppers by topical application method; conditions: Nephotettix cincticeps, in Oryza sativa, 24 h; for mortality at 10 ng: read-out: Pesticidal effect, green rice leafhopper
Experimental: Mortality test with green rice leafhoppers (Nephotettix cincticeps Uhler) by topical application method
Then, the insects were kept at 25° C. with access to rice plant seedlings. The insects were used in groups of 15 individuals each.

[8] = system: tobacco cutworms (Prodenia litura Fabricius); test: Mortality test with tobacco cutworms by topical application method; format: in vivo; conditions: 24 h
Experimental: Mortality test with tobacco cutworms (Prodenia litura Fabricius) by topical application method
Using a microsyringe, 0.5 μl of the above solution was dripped onto the thoracic adbominal region of each of 3-instar tobacco cutworm (Prodenia litura Fabricius) larvae. […] The test larvae were used in groups of 20 individuals each.

[9] = system: guppies (Lebistes reticulatus); test: Fish toxicity test with guppies; format: in vivo; conditions: Table 1; 48 hrs.
Experimental: (§1) Fish toxicity test with guppies (Lebistes reticulatus)
(§2) To 5 liters of water were added 250 mg of Sorpol SM-200 (trademark, Toho Chemical Co., Ltd.) as a surfactant and 2.5 ml of an acetone solution containing one of the test compounds in a predetermined concentration. The mixture was stirred thoroughly to prepare a test water. Ten female guppies (Lebistes reticulatus) of from 3 to 4 months of age were released into the test water which was maintained at 20° C. and the TLm (median tolerance limit, ppm) was determined.

[10] = Fish toxicity test with guppies; format: in vivo, Lebistes reticulatus; conditions: guppy, water, guppies, 20° C., read-out: TLm (48 hrs.)
Experimental: as §1, §2

[11] = system: rice stem borers (Chilo suppressalis Walker); test: Mortality test with rice stem borers by topical application method; format: in vivo; conditions: 24 h; for mortality at 0.001 mg: read-out: Pesticidal effect, rice stem borer
Experimental: Mortality test with rice stem borers (Chilo suppressalis Walker) by topical application method
Using a microsyringe, 0.5 μl of the above solution was applied to the thoracic abdominal region of each final-instar larva of rice stem borer (Chilo suppressalis Walker). […] The test larvae were used in groups of 20 individuals each.

[12] = Fish toxicity test with killifish; format: in vivo, Orizias latipes; conditions: water, killifish, 25±1° C., read-out: TLm (48 hrs.)
Experimental: Fish toxicity test with killifish (Orizias latipes)
An acetone solution of one of the test compounds as mentioned in Table 8 was prepared by adding said test compound to 15 ml of acetone. To 10 liters of water was added a predetermined amount of the above acetone solution and the mixture was stirred thoroughly to prepare an aqueous solution containing the test compound in a predetermined concentration. This was used as a test water. After the each test water was moderately aerated, ten killifishes (Orizias latipes) with a body weight of about 0.25 g and a body length of about 2.5 cm were released into said each test water which was maintained at 25±1° C. After 48 hours, the test fish was examined for death. The TLm (median tolerance limit, ppm) was determined.

[13] = read-out: Pesticidal effect, tobacco cutworm

| Compound | selectivity ratio [1] | LC50 [2] | LC50 at 6 h [3] | LC50 at 48 h [4] | Ranking [5] | mortality at 0.5 µg/female [6] | mortality at 1 µg/female [6] | mortality at 0.001 mg [6] | mortality at 0.01 µg/female [7] | mortality at 0.1 µg/female [7] | mortality at 1 µg/female [7] | mortality at 10 ng [7] | mortality at 0.0001 mg [8, 13] | Toxicity to fish TLm, guppy [9] | LC50 at 48 h [10] | mortality at 1 µg/larva [11] | mortality at 10 µg/larva [11] | mortality at 0.001 mg [11] | LC50 at 48 h [12] | mortality at 0.0001 mg [8] |
| --- | --- | --- | --- | --- | --- | --- | --- | --- | --- | --- | --- | --- | --- | --- | --- | --- | --- | --- | --- | --- |
| CC1(C)C(C=C(Cl)Cl)C1C(=O)OCc1cccc(Oc2ccc(Cl)cc2)c1 (stereo not drawn) [Compound (1) cis-/trans- = 20:80] | 2.5 | 520 µg/mL (≈ 1220 µM) | > 40 µg/mL | 2.6 µg/mL (≈ 6.11 µM) | B (TLm (48 hrs.) value 10-0.5 ppm for carp; or TLm (48 hrs.) value >10 ppm for carp and TLm (3 hrs.) value <0.5 ppm for water flea, wherein appreciable toxicity to fishes is not observed by usual application but may be observed when applied to wide area at one time.) | – | – | – | – | – | – | – | – | – | – | – | – | – | – | – |
| CC1(C)C(C=C(Br)Br)C1C(=O)OC(C#N)c1cccc(Oc2ccccc2)c1 (centres unmarked) [Compound (D), Decamethrin] | – | – | – | 0.0051 µg/mL (≈ 0.0101 µM) | C (TLm (48 hrs.) value <0.5 ppm for carp, wherein toxicity to fishes is so strongly observed by usual application that both the application method and application area are strictly restricted.) | 100% | 100% | 100% | 100% | 100% | 100% | 100% | 100% | < 0.5 ppm | < 0.5 µg/mL | 100% | 100% | 100% | – | – |
| CC1(C)[C@H](C=C(Cl)Cl)[C@H]1C(=O)OC(C#N)c1cccc(Oc2ccc(Cl)cc2)c1 (relative stereo) [Compound (G) trans-] | 0.12 | 380 µg/mL (≈ 843 µM) | 1.7 µg/mL (≈ 3.77 µM) | 0.09 µg/mL (≈ 0.2 µM) | C (TLm (48 hrs.) value <0.5 ppm for carp, wherein toxicity to fishes is so strongly observed by usual application that both the application method and application area are strictly restricted.) | – | – | – | – | – | – | – | – | – | – | 85% | 100% | – | – | – |
| CC1(C)[C@H](C(=O)OC(C#N)c2cccc(Oc3ccc(Cl)cc3)c2)[C@@H]1C=C(Cl)Cl (relative stereo) [Compound (G) cis-] | 0.01 | 620 µg/mL (≈ 1380 µM) | 5 µg/mL (≈ 11.1 µM) | 0.013 µg/mL (≈ 0.0288 µM) | C (TLm (48 hrs.) value <0.5 ppm for carp, wherein toxicity to fishes is so strongly observed by usual application that both the application method and application area are strictly restricted.) | – | – | – | – | – | – | – | – | – | – | 40% | 100% | – | – | – |
| C#CC(OC(=O)C1C(C=C(Cl)Cl)C1(C)C)c1cccc(Oc2ccccc2)c1 (centres unmarked) [Compound (F)] | – | – | – | – | – | 100% | 100% | 100% | 100% | 100% | 100% | 100% | – | < 0.5 ppm | < 0.5 µg/mL | – | – | – | – | – |
| CC1(C)C(C=C(Cl)Cl)C1C(=O)OC(C#N)c1cccc(Oc2ccc(Cl)cc2)c1 (stereo not drawn) [Compound (G) cis-/trans- = 50:50] | 0.04 | 450 µg/mL (≈ 998 µM) | – | 0.04 µg/mL (≈ 0.0887 µM) | C (TLm (48 hrs.) value <0.5 ppm for carp, wherein toxicity to fishes is so strongly observed by usual application that both the application method and application area are strictly restricted.) | 100% | 100% | 100% | 100% | 100% | 100% | 100% | 65% | < 1.0 ppm | < 1 µg/mL | 90% | 100% | 90% | 0.15 µg/mL (≈ 0.333 µM) | 65% |
